Assay results published in patent US20080114079A1, “TRPM2-specfic inhibitors” (priority 2006, published 2008).
Entries after “also recorded” stand apart in the source; their conditions may differ.

Experiments:
[1] = test system: mouse bone marrow neutrophils; experiment: Ca2+ mobilization assay in chemoattractant-stimulated bone marrow neutrophils (flow cytometry, Fluo-3/Fura-red); type: cell-based; settings: 100 μM, 15 min
Method: (§1) Ca^2+ mobilization assays. Bone marrow neutrophils (1×10^7/ml) and DCs (1×10^6/ml) were loaded with a mixture of Fluo-3 AM and Fura-Red AM as previously described (Partida-Sanchez, S. et al., 2001 Nature Medicine 7:1209-1216; Partida-Sanchez S. et al., 2004 Immunity 20:279-291). […] The accumulation of intracellular free Ca^2+ was assessed by flow cytometry by measuring the fluorescence emission of Fluo-3 in the FL-1 channel and Fura-Red in the FL-3 channel over time. Data were analyzed using FlowJo 4.0 software (Tree Star). Relative intracellular free Ca^2+ levels are expressed as the ratio between Fluo-3 and Fura-Red mean fluorescence intensity.

[2] = test system: mouse bone marrow neutrophils; experiment: Oxidant (H2O2)-induced Ca2+ influx in bone marrow neutrophils; type: cell-based; settings: 100 μM, 15 min, H2O2 100 μM
Method: as §1

[3] = test system: mouse bone marrow neutrophils; experiment: Transwell chemotaxis assay, mouse bone marrow neutrophils; type: cell-based
Method: (§2) Chemotaxis assays. Chemotaxis assays were performed as previously described (Partida-Sanchez, S. et al., 2001 Nature Medicine 7:1209-1216; Partida-Sanchez S. et al., 2004 Immunity 20:279-291). […] Treated cells (1×10^6 neutrophils or 1×10^5 DCs) were added to the upper chamber of the transwell (3-μm for neutrophils or 5-μm for DCs) (Costar). After incubating the chambers for 45 min (neutrophils) or 90 min (DCs) at 37° C., the transmigrated cells were collected from the lower chamber, fixed, and counted on a flow cytometer. The results are expressed as the mean ±SD of the chemotaxis index (CI) for triplicate wells. The CI represents the fold-change in the number of untreated or inhibitor-pretreated cells that migrated in response to the chemoattractant divided by the basal migration of untreated or antagonist pretreated cells migrating in response to control medium.

[4] = HPLC analysis of catabolites after incubation with bone marrow neutrophils; type: in vitro ADME, mouse
Method: HPLC analysis of catabolites produced by CD38-expressing cells. […] The supernatants were collected after centrifugation, concentrated and flash frozen. Aliquots were analyzed by reversed-phase HPLC (Kontron Instruments) using a Multohyp BDS C18 column (250 mm×4.6 mm, particle size 5 μm, Chromatographie Service). Absorbance was measured at 270 nm using a UV detector (Kontron 432) and data were processed by the MT2 data acquisition system from Kontron Instruments. Peaks were identified by comparison to known standards and the area under each curve was quantified to determine relative amounts of each metabolite.

TRPM2 channels = target: T1, TRPM2 channels (Homo sapiens, UniProt O94759); experiment: Whole-cell patch-clamp of ADPR-gated cation entry in TRPM2-expressing Jurkat T cells; type: cell-based; settings: 300 μM ADPR in the pipette, -60 mV
T1 construct: All experiments were performed at room temperature with Jurkat T lymphocytes attached to high molecular weight poly-L-lysin; endogenous in cells; host or cells: Jurkat T lymphocytes
T1 sequence (O94759 whole entry): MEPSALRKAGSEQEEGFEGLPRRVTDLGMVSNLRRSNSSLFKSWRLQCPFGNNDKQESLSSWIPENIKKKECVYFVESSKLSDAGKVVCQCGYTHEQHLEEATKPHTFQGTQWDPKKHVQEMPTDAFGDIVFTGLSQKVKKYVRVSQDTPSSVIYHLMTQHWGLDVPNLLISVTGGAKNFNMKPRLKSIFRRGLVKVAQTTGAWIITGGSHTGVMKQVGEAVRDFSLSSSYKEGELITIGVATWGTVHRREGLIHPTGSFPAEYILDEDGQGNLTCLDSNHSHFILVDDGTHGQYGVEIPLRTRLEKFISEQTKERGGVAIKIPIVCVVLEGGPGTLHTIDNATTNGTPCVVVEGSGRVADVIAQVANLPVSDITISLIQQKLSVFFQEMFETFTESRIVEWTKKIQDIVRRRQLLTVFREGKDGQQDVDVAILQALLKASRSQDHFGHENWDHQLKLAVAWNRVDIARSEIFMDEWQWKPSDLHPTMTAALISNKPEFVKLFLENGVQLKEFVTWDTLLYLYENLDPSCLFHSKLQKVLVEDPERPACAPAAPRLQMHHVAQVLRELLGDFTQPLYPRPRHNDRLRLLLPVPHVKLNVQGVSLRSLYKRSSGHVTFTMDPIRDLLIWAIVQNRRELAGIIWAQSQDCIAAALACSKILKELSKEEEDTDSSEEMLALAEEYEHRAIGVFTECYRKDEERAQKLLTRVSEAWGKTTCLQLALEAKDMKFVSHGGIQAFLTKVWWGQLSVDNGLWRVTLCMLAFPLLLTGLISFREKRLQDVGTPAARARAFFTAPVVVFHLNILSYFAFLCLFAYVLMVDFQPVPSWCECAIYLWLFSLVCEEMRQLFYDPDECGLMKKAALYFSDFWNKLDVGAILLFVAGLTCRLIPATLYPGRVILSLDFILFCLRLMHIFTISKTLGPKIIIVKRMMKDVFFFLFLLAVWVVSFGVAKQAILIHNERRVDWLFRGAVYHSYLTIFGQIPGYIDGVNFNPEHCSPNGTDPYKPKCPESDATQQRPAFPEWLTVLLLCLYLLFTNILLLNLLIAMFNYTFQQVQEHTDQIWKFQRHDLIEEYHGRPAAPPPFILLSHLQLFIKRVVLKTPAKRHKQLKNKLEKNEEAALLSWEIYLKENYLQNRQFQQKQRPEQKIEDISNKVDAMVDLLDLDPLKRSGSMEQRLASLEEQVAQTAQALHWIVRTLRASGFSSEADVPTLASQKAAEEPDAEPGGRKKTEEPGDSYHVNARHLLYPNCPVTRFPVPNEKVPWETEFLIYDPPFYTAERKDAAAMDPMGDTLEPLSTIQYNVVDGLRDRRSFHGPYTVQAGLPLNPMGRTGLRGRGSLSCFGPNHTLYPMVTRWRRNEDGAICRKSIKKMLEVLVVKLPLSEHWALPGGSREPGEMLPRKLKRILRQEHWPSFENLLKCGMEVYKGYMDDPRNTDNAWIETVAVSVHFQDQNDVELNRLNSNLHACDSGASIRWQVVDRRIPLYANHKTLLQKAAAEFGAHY
Method: Electrophysiology. […] An EPC9 patch-clamp amplifier was used in conjunction with the PULSE stimulation and data acquisition software (HEKA Elektronik). The patch electrodes were made from 1.5 mm diameter borosilicate glass capillaries and filled with intracellular solution. Data were low-pass filtered at 1 kHz and compensated for both fast and slow capacity transients. Series resistance was compensated by 50-90%. All experiments were performed at room temperature with Jurkat T lymphocytes attached to high molecular weight poly-L-lysin. The pipette solution contained 145 mM K-glutamate, 8 mM NaCl, 1 mM MgCl2 and 10 mM EGTA, adjusted to pH 7.2 with KOH and to a free Ca^2+ concentration of 100 nM with CaCl2. […] The external solution contained 145 mM NaCl, 2 mM MgCl2, 1 mM CaCl2, 2.8 mM KCl, 10 mM HEPES and 10 mM glucose, adjusted to pH 7.2 with NaOH. The cells were held at −60 mV and I-V relations were obtained every 20 sec using 250 ms voltage ramps from −100 to +100 mV.

mouse DCs = experiment: Ca2+ mobilization assay in chemokine-stimulated DCs; type: cell-based; settings: 100 μM, 15 min, CXCL12 50 ng/ml
Method: as §1

[5] = test system: bone marrow-derived immature or TNFα-matured DCs; experiment: Transwell chemotaxis assay, bone marrow-derived DCs; type: cell-based, mouse; settings: 100 μM, 15 min pretreatment
Method: as §2

human neutrophils = experiment: Transwell chemotaxis assay, human peripheral blood neutrophils; type: cell-based; settings: 100 μM, 15 min, A5 peptide 1 μM
Method: as §2

[6] = fMLP 1 μM, Ca2+-containing media
[7] = 100 μM, 15 min, fMLP 1 μM, 45 min

For `Nc1ncnc2c1nc(Br)n2[C@@H]1O[C@H](COP(=O)(O)O)[C@@H](O)[C@H]1O` [8Br-AMP], which “effect on extracellular Ca2+ influx in fMLP-stimulated WT neutrophils” value (from here on “effect on extracellular Ca2+ influx”) [1, 6] is on record?
The value was “had absolutely no effect; also recorded: does not block”.

With `NC(=O)c1ccc[n+]([C@@H]2O[C@H](COP(=O)([O-])OP(=O)(O)OC[C@H]3O[C@@H](n4c(Br)nc5c(N)ncnc54)[C@H](O)[C@@H]3O)[C@@H](O)[C@H]2O)c1` [8Br-NAD^+] as the compound, how does the “effect on extracellular Ca2+ influx” value [1, 6] read?
The value was “significantly reduced”.

What about the “effect on Ca2+ influx in fMLP-stimulated Parp1-/- neutrophils” value ([1]; fMLP 1 μM, Parp1-/-) of the same compound?
Its value is “significantly reduced”.

And the “effect on H2O2-induced Ca2+ influx in WT neutrophils” value [2]?
Its value is “had no effect”.

And the “effect on chemotactic response of WT neutrophils to fMLP” value [3, 7]?
The value was “significantly inhibited”.

What about the “effect on chemotactic response of Parp1-/- neutrophils to fMLP” value ([3]; 100 μM, 15 min, fMLP 1 μM, Parp1-/-) of the same compound?
The value was “inhibited”.

And the “effect on chemotactic response of CD38KO (Cd38-/-) neutrophils to fMLP” value ([3]; 15 min, fMLP 1 μM)?
The value was “no further inhibition”.

And the “stability in the absence of any cells” value [4]?
The value was “remained intact”.

With adenosine diphosphate ribose [ADPR] as the compound, how does the “membrane current on infusion into Jurkat cells” value (TRPM2 channels) read?
The value was “caused a slowly developing inward current”.

With 8Br-cADPR as the compound, how does the “effect on intracellular Ca2+ release after IL-8” value ([1]; IL-8 100 nM, Ca2+ free buffer (EGTA 2 mM)) read?
Its value is “had no effect”.

What about the “effect on IL-8 induced Ca2+ response” value ([1]; IL-8 100 nM, Ca2+-containing media) of the same compound?
Its value is “neither compound had any effect”.

And the “decrease of intracellular Ca2+ release in fMLP-stimulated neutrophils” value ([1]; fMLP 1 μM, Ca2+ free buffer (EGTA 2 mM))?
The value was “approximately 25%”.

What about the “effect on extracellular Ca2+ influx” value [1, 6] of the same compound?
The value was “significantly decreased”.

What about the “effect on Ca2+ response of CXCL12-stimulated immature DCs” value (mouse DCs) of the same compound?
The value was “blocked”.

And the IC50 ([3]; 0-100 μM, 15 min, fMLP 1 μM, read-out: IC50 on chemotaxis of fMLP-stimulated mouse neutrophils)?
Its IC50 is 1000 to 5000 nM.

What about the “effect on chemotactic response of WT neutrophils to fMLP” value [3, 7] of the same compound?
The value was “effectively blocked chemotaxis; also recorded: significantly inhibited”.

And the “effect on chemotactic response of neutrophils to IL-8” value ([3]; 100 μM, IL-8 100 nM, 45 min)?
Its value is “neither 8Br-ADPR nor 8Br-cADPR blocked”.

And the “effect on chemotactic response of CD38KO (Cd38-/-) neutrophils to fMLP” value ([3]; 15 min, fMLP 1 μM)?
Its value is “no further inhibition”.

And the “chemotactic response of TNFα-matured DCs to CCL21” value [5]?
Its value is “neither the immature nor mature DCs migrated efficiently”.

What about the “chemotactic response of immature DCs to CXCL12” value [5] of the same compound?
Its value is “neither the immature nor mature DCs migrated efficiently”.

What about the “effect on migration of human neutrophils to FPRL1 ligand A5 peptide” value (human neutrophils) of the same compound?
The value was “effectively inhibited”.

And the “catabolism on incubation with CD38KO (Cd38-/-) neutrophils” value [4]?
Its value is “remained largely unchanged”.

And the “stability in the absence of any cells” value [4]?
Its value is “remained intact”.
